# Laboratory results reported in patent US5773236A, “Assay for glutathiane transferase using polyhaloaryl-substituted reporter molecules” (Molecule Probes, Inc., priority 1997, dated 1998).
# “Also recorded” adds a separate entry of the source.
# Assays:
# [1] = cited from earlier work
# 3T3 or BPAE cells [2] = assay: Intracellular products of tracers by TLC and HPLC (Example 67); format: cell-based; conditions: 5 μM, 1 hr, 37° C.
# Protocol: Reaction mixtures with and without GST using Compound 1 as the substrate, are prepared as described in Example 48. The solutions are mixed overnight with three volumes of ethyl acetate followed by centrifugation at 15,000×g for 30 min to separate the organic and aqueous layers. HPLC analysis using a Rainin HPLC equipped with a C18, 5 μm, 100 Å, 4.6×250 mm MICROSORB-MV reverse phase column. Products are separated in 30 min with a gradient of 5% to 95% solvent B in Solvent A at a flow rate of 1 mL/min, where solvent A is 0.1M triethylammonium acetate, pH 7.0, and solvent B is acetonitrile (see FIG. 1). Products are detected by reading the absorbance at 500 nm. Peaks are identified and, if desired, quantitated by comparing retention times with authentic samples of the glutathione adduct of Compound 45 (Example 45).
# (§1) Cultures of either 3T3 or BPAE cells are treated with 5 μM solutions of either Compound 4,5-(pentachlorobenzoylamino)fluorescein diacetate, 5-pentafluorobenzenesulfonylamino)fluorescein diacetate, or 5-chloromethylfluorescein diacetate (CMFDA, Molecular Probes, Inc.) for 1 hr at 37° C. The cells are spun, resuspended in distilled water and lysed by repeated freezing and thawing. 20 μL of the cell lysate supernatant is diluted with 30 μL of SDS-PAGE sample buffer, containing β-mercaptoethanol. The cell pellets are dispersed in 50 μL of water. 20 μL of each sample is added to 30 μL of the same sample buffer. The samples are heated at 95° C. for 5 min. and loaded on 4-20% polyacrylamide gradient minigels. At the completion of the run the gels are observed with UV excitation.
# Alternatively, the above samples are analyzed by TLC and by HPLC, as described in Examples 48 and 52. […] Coinjection with authentic Compound 1 confirms the identity of the substrate peak and coinjection with the authentic Compound 1-GSH adduct (Example 45) confirms the identify of the other fluorescent product.
# β-galactosidase = assay: Reactivity with thiol groups of proteins (Example 51); format: biochemical
# Protocol: To test the specificity of the Compound 1 reaction with GSH versus thiol-containing proteins, β-galactosidase (a protein that has several free thiols) is dissolved at 5 mg/mL in deoxygenated 0.1M phosphate, 0.1M NaCl, pH 7.5, and reacted under anaerobic conditions with 5-(pentafluorobenzoylamino)fluorescein diacetate (Compound 4, Example 3) or Compound 1 dissolved at 10 mg/mL in DMSO at a molar ratio of the reagent to protein of 15. This assay is performed both in the presence and absence of 30 mM N-ethyl maleimide (NEM) as an effective thiol-blocking reagent. The reactions are incubated at room temperature for 1 hour, stopped by the addition of hydroxylamine, pH 9 to a final concentration of 0.15M, and incubated for 2 more hours to hydrolyze the acetate groups. […] Consequently, no reaction of either Compound 4 or Compound 1 with β-galactosidase is detected under the described conditions.
# [3] = tested on: Bovine pulmonary aorta endothelial cells (BPAEC); assay: Glutathione adduct formation and fate of substrate in cultured animal cells, HPLC (Example 66); format: cell-based
# Protocol: The solutions are mixed overnight with three volumes of ethyl acetate followed by centrifugation at 15,000×g for 30 min to separate the organic and aqueous layers. HPLC analysis using a Rainin HPLC equipped with a C18, 5 μm, 100 Å, 4.6×250 mm MICROSORB-MV reverse phase column. […] Products are detected by reading the absorbance at 500 nm.
# Bovine pulmonary aorta endothelial cells (BPAEC) are removed from flasks by trypsinization and washed into fresh complete growth medium to yield 10^6 cells/mL. […] Other aliquots of the cell suspension are loaded with the same substrates for 1 hour, rinsed into fresh complete medium, then incubated in the absence of substrate for an additional 3 hr at 37° C. to look for retention and efflux of fluorescent products. At the end of each incubation period the cells are removed by centrifugation and the supernate is retained. The cell pellets are resuspended in 1 mL of E-Pure water and subjected to three freeze-thaw cycles (-80° C. to 37° C.).
# 3T3 or BPAE cells [4] = assay: Intracellular products of tracers by gel electrophoresis (Example 67); format: cell-based; conditions: 5 μM, 1 hr, 37° C.
# Protocol: as §1
# [5] = tested on: Bovine pulmonary aorta endothelial cells (BPAEC); assay: Retention of fluorescence in fixed cells (Example 66); format: cell-based; conditions: 3.7% formaldehyde 30 minutes, 0.2% Triton X-100 30 minutes
# NIH-3T3 cells = assay: Hydrolysis of esterase substrates and product retention in live cells, flow cytometry (Example 65); format: cell-based
# Protocol: NIH-3T3 cells obtained from American Type Culture Collection Co., Rockville, Md. are used. They are grown in a humidified atmosphere of 5% CO2 in D-MEM supplemented with 10% bovine calf serum (BCS), 50 μg/mL gentamycin, 300 μg/mL L-glutamine and 10 mM HEPES, pH 7.4. Stock solutions of Compound 4 (Example 3), 10 mM in DMSO, and Compound 48 (Example 50), 5 mM in DMSO, are prepared. NIH-3T3 cells are trypsinized, washed with phosphate-buffered saline (PBS), pH 7.2 and resuspended in D-MEM with 10% BCS. To 1 mL of the cell suspension is added the dye stock solution to obtain a final dye concentration of 0.1 mM. Incubation is carried out at 37° C. for 30 minutes followed by incubation on ice for 30 minutes. Cells are centrifuged to form a pellet, the supernatant is discarded and the cells are washed twice with PBS, pH 7.2 and suspended in the same buffer. Cells are analyzed by flow cytometry using the Becton-Dickinson FACS Vantage flow cytometer. After analysis on the flow cytometer, cells are placed at 37° C. and analyzed by flow cytometry at frequent intervals over a period of 75 minutes. Cells stained with either of the dyes are at least 20-fold brighter than the autofluorescent control cells. Approximately 45% of Compound 4 and 35% of Compound 48 are still retained by the cells after 75 minutes of incubation at 37° C.
# [6] = 15 min, 5 μM substrate, continuous
# [7] = 1 hr, washed, then additional 3 hr at 37° C.
# [8] = 4 hrs, 5 μM substrate, continuous
structure (smiles),measurement,setting,value
"O=[N+]([O-])c1ccc(Cl)c([N+](=O)[O-])c1 [1-Chloro-2,4-dinitrobenzene]",reaction with GSH in the presence of GST enzymes,[1],react specifically with GSH in the presence of GST enzymes
"CC(=O)Oc1ccc2c(c1)Oc1cc(OC(C)=O)ccc1C21OC(=O)c2cc(NC(=O)c3c(F)c(F)c(F)c(F)c3F)ccc21 [Compound 4, 5-(pentafluorobenzoylamino)fluorescein diacetate]",products by HPLC,3T3 or BPAE cells [2]; HPLC,two peaks
same,products by TLC,3T3 or BPAE cells [2]; TLC,formation of a GSH adduct
same,"fluorescent proteins formed, gel electrophoresis",β-galactosidase; molar ratio of reagent to protein 15,no fluorescent proteins are formed
same,"reaction with β-galactosidase, TLC","β-galactosidase; molar ratio of reagent to protein 15, pH 7.5, 1 hour, with and without 30 mM NEM",no reaction
same,GSH adduct formation in cells,"[3]; 5 μM substrate, 37° C., HPLC",hydrolyzed and conjugated to glutathione; also recorded: gives rise to glutathione (GSH) adducts
same,EXTRACELLULAR Free dye,[3]; [6],3350 relative fluorescence units
same,"EXTRACELLULAR Free dye, fraction of total fluorescence",[3]; [6],89.2%
same,EXTRACELLULAR GSH adduct,[3]; [6],97 relative fluorescence units
same,"EXTRACELLULAR GSH adduct, fraction of total fluorescence",[3]; [6],2.6%
same,INTRACELLULAR Free dye,[3]; [6],237 relative fluorescence units
same,"INTRACELLULAR Free dye, fraction of total fluorescence",[3]; [6],6.3%
same,INTRACELLULAR GSH adduct,[3]; [6],72 relative fluorescence units
same,"INTRACELLULAR GSH adduct, fraction of total fluorescence",[3]; [6],1.9%
same,EXTRACELLULAR Free dye,[3]; [7],361 relative fluorescence units
same,"EXTRACELLULAR Free dye, fraction of total fluorescence",[3]; [7],85.3%
same,EXTRACELLULAR GSH adduct,[3]; [7],62 relative fluorescence units
same,"EXTRACELLULAR GSH adduct, fraction of total fluorescence",[3]; [7],14.7%
same,INTRACELLULAR Free dye,[3]; [7],< 1 relative fluorescence units
same,"INTRACELLULAR Free dye, fraction of total fluorescence",[3]; [7],< 0.2%
same,INTRACELLULAR GSH adduct,[3]; [7],< 1 relative fluorescence units
same,"INTRACELLULAR GSH adduct, fraction of total fluorescence",[3]; [7],< 0.2%
same,EXTRACELLULAR Free dye,[3]; [8],4498 relative fluorescence units
same,"EXTRACELLULAR Free dye, fraction of total fluorescence",[3]; [8],86.8%
same,EXTRACELLULAR GSH adduct,[3]; [8],642 relative fluorescence units
same,"EXTRACELLULAR GSH adduct, fraction of total fluorescence",[3]; [8],12.4%
same,INTRACELLULAR Free dye,[3]; [8],23 relative fluorescence units
same,"INTRACELLULAR Free dye, fraction of total fluorescence",[3]; [8],0.4%
same,INTRACELLULAR GSH adduct,[3]; [8],21 relative fluorescence units
same,"INTRACELLULAR GSH adduct, fraction of total fluorescence",[3]; [8],0.4%
same,fluorescent bands on gel (region of the tracking dye),3T3 or BPAE cells [4],Two closely spaced green fluorescent bands
same,protein adduct bands on gel,3T3 or BPAE cells [4],No other band corresponding to proteins is visible
same,fluorescence after fixation and permeabilization,[5],appreciably fluorescent
same,brightness versus autofluorescent control cells,"NIH-3T3 cells; 0.1 mM dye, 37° C., 30 minutes then on ice 30 minutes",at least 20 fold
same,dye retained by the cells,NIH-3T3 cells; after 75 minutes of incubation at 37° C.,Approximately 45%
O=S1(=O)OC(c2cc(Br)c(O)c(Br)c2)(c2cc(Br)c(O)c(Br)c2)c2ccccc21 [tetrabromophenolsulfonephthalein],reaction with GSH in the presence of GST enzymes,[1],react specifically with GSH in the presence of GST enzymes
